Data on eleven molecules can be found in patent US8785442B2, “Compound as antagonist of lysophosphatidic acid receptor, composition, and use thereof” (Curegenix, Inc., priority 2011, dated 2014).

The first assay relates to breast cancer cells.
Experiment: not given
The settings on record: animal models (Boucharaba, 2006); cited from earlier work.
`Cc1noc(-c2ccc(CSCCC(=O)O)cc2)c1NC(=O)OC(C)c1ccccc1Cl` (stereo not drawn) [Ki16425]: the “metastasis of breast cancer cells to bone” value was “inhibited”.

The test system of the next assay is highly peritoneal metastatic pancreatic cancer cell line.
Experiment: not given
The settings on record: highly peritoneal metastatic pancreatic cancer cell line (Yamada, 2004); cited from earlier work.
In the case of `Cc1noc(-c2ccc(CSCCC(=O)O)cc2)c1NC(=O)OC(C)c1ccccc1Cl` (stereo not drawn) [Ki16425], the “LPA-induced and ascites-induced invasion activity” value is listed as “blocked”.

The next assay deals with T1, human LPA1 receptor (Homo sapiens, UniProt Q92633).
T1 construct: The 1.1 kb cDNA encoding the full-length coding region of human LPA1 was subcloned into the pRK5; expressed in transfected cells; host or cells: HEK293 or CHO cells
T1 sequence (Q92633 whole entry): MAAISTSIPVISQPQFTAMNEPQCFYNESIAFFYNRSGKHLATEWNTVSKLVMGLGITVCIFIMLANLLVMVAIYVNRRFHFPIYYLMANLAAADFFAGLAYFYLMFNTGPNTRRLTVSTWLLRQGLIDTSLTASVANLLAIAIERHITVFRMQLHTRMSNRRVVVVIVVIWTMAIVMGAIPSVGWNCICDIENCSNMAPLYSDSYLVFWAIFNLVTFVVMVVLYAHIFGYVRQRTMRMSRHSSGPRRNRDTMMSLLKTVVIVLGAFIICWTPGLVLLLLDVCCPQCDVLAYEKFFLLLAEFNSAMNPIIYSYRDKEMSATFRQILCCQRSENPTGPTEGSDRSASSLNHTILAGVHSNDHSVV
Nature of the assay: calcium flux assay (LPA Receptor Assays).
Conditions: not given
Type of assay: cell-based. Here is the method: A cDNA encoding the human LPA1 receptor was cloned by PCR from cDNA clone obtained from commercial sources. The nucleotide sequence was determined by sequencing and confirmed to be identical to the published human LPA1 sequence (An, 1997). The 1.1 kb cDNA encoding the full-length coding region of human LPA1 was subcloned into the pRK5 […] expression vector. Transfection of the cDNA into HEK293 or CHO cells is performed by using LipofectAmine 2000 (Invitrogen, USA). The full-length cDNA fragments for human LPA2 and LPA3 were obtained by PCR similarly and subcloned into pCDNA3.1 expression vector.
Transfected cells were cultured and subjected to LPA-induced SRE-luciferase reporter gene assay by using generally described methods (An, 1997). Intact HEK293 or CHO cells expressing the recombinant human LPA1 receptor were subjected to a [3H]-LPA ligand binding assay as described (An, 1998).
All compounds presented in the patent have IC50<20 μM in the calcium flux assay.
(A change in cytosolic calcium serves as a functional read-out for many receptors and channels.)
One may read the IC50 as the concentration that gives 50% inhibition. Turning to `Cc1noc(-c2ccc(NS(C)(=O)=O)cc2)c1NC(=O)OC(C)c1ccc(F)cc1Cl` (stereo not drawn) [Compound 42, 1-(2-chloro-4-fluorophenyl)ethyl(3-methyl-5-(4-(methylsulfonamido)phenyl)isoxazol-4-yl)carbamate], the IC50 was found to be 60 nM. For `Cc1noc(-c2ccc(NC(=O)CCC(=O)O)cc2F)c1NC(=O)O[C@H](C)c1ccccc1Cl` [Compound 50, (R)-4-((4-(4-(((1-(2-chlorophenyl)ethoxy)carbonyl)amino)-3-methylisoxazol-5-yl)-3-fluorophenyl)amino)-4-oxobutanoic acid], the half-inhibitory concentration (IC50) came out at 70 nM. The same measure, in the same setting: to `Cc1noc(-c2ccc3[nH]ncc3c2)c1NC(=O)OC(C)c1ccccc1Cl` (stereo not drawn) [Compound 3, 1-(2-chlorophenyl)ethyl(5-(1H-indazol-5-yl)-3-methylisoxazol-4-yl)carbamate] belongs 550 nM; to `Cc1noc(-c2ccc(NS(=O)(=O)CCC(=O)O)cc2)c1NC(=O)OC(C)c1ccccc1Cl` (stereo not drawn) [Compound 28, 3-(N-(4-(4-(((1-(2-chlorophenyl)ethoxy)carbonyl)amino)-3-methylisoxazol-5-yl)phenyl)sulfamoyl)propanoic acid], 110 nM. On to `Cc1noc(-c2ccc(NC(=O)C3CC3)cc2)c1NC(=O)OC(C)c1ccccc1Cl` (stereo not drawn) [Compound 7, 1-(2-chlorophenyl)ethyl(5-(4-(cyclopropanecarboxamido)phenyl)-3-methylisoxazol-4-yl)carbamate], for which the IC50 was 1150 nM.

Regarding `Cc1noc(-c2ccc(NS(C)(=O)=O)cc2)c1NC(=O)O[C@H](C)c1ccccc1Cl` [Compound 19, (R)-1-(2-chlorophenyl)ethyl(3-methyl-5-(4-(methylsulfonamido)phenyl)isoxazol-4-yl)carbamate], the half-maximal inhibitory concentration (IC50) amounted to 55 nM. On to `Cc1noc(-c2ccc(NC(=O)CCC(=O)O)cc2)c1NC(=O)OC(C)c1ccccc1Cl` (stereo not drawn) [Compound 12, 4-((4-(4-(((1-(2-chlorophenyl)ethoxy)carbonyl)amino)-3-methylisoxazol-5-yl)phenyl)amino)-4-oxobutanoic acid], for which the IC50 worked out at 70 nM. Still for that read-out and setting: to `Cc1noc(-c2ccc(NS(C)(=O)=O)cc2F)c1NC(=O)OC(C)c1ccccc1Cl` (stereo not drawn) [Compound 32, 1-(2-chlorophenyl)ethyl(5-(2-fluoro-4-(methylsulfonamido)phenyl)-3-methylisoxazol-4-yl)carbamate] belongs 70 nM; to `Cc1noc(-c2ccc(NC(=O)c3ccccc3)cc2)c1NC(=O)OC(C)c1ccccc1Cl` (stereo not drawn) [Compound 16, 1-(2-chlorophenyl)ethyl(5-(4-benzamidophenyl)-3-methylisoxazol-4-yl)carbamate], 2200 nM; to `Cc1noc(-c2ccc(NS(C)(=O)=O)cc2)c1NC(=O)OC(C)c1ccccc1Cl` (stereo not drawn) [Compound 1, 1-(2-chlorophenyl)ethyl(3-methyl-5-(4-(methylsulfonamido)phenyl)isoxazol-4-yl)carbamate], 90 nM.
